Earlier results, collected in EP3842031A1, “NEW THERAPEUTIC INHALATION SYSTEM PROVIDING REDUCED DOSE OF FLUTICASONE PROPIONATE AND SALMETEROL XINAFOATE WITH IMPROVED EFFICACY AND SAFETY PROFILE” (PRZEDSIEBIORSTWO FARMACEUTYCZNE LEK-AM SP Z O. O., priority 2019, dated 2021).

Assays:
[1] = compared with beclomethasone dipropionate, control of chronic asthma
[2] = in vivo

oral bioavailability [2]: less than 1%
Compound: CCC(=O)O[C@]1(C(=O)SCF)[C@H](C)C[C@H]2[C@@H]3C[C@H](F)C4=CC(=O)C=C[C@]4(C)[C@@]3(F)[C@@H](O)C[C@@]21C [Fluticasone propionate]
potency [1]: twice the potency of the beclomethasone dipropionate
